Columns and labels:
[1] = tested on: 3T3-L1 cells; experiment: adipogenesis assay (formation of oil droplets); format: cell-based, mouse; set-up: key: +: The analogues that completely inhibited the formation of oil droplets in cells were scored to be adipogenesis-inhibiting analogues; conditions: formation of oil droplets in cells
Description: The adipogenesis assay was performed as described (Choi et al., 2003).

[2] = tested on: MOLT-4 cells; experiment: MOLT-4 cell growth, MTT assay; format: cell-based, human; conditions: 48 hours
Description: 10,000 MOLT-4 cells (FIGS. 35A-35C) and 20,000 RPM18226 cells (FIGS. 35D-35F) were seeded onto 96 well plate in RPMI 1640 medium containing 5% FBS or fat-free charcoal treated serum (FF-FBS) for 24 hours at 37 C. MOLT-4 and RPM18226 cells were treated for additional 48 hours with different concentrations of compound 19 (None control without DMSO, Vehicle with DMSO, 1, 2, 5, 10 and 20 μM in DMSO; RPM18226 cells also were treated with 3 μM in DMSO). At the end of 48 hours cells were subjected to MTT assay to determine viability. Values are depicted as means±SD; *P<0.05.
20,000 MOLT-4 cells (FIGS. 36A-36C) and 20,000 RPM18226 cells (FIGS. 36D-36F) cells were seeded onto 96 well plates in RPMI 1640 Medium containing 5% Fetal bovine serum (FBS) or 5% fat free charcoal treated serum (FF-FBS) for 24 hours at 37 C. Cells then were treated for additional 48 hours with different concentrations of compound 17 (None control without DMSO, Vehicle with DMSO, 1, 2, 3, 5, 10 and 20 μM in DMSO). At the end of the 48 hours treatment cells were subjected to MTT assay to determine viability. Values are depicted as means±SD (n=3); **P<0.001; ***P<0.0001.
MOLT-4 cells were grown at two different conditions under 5% fetal bovine serum (FBS) and under 5% FBS fat free serum (charcoal treated serum). 10,000 Cells were seeded a 96 well plate for 24 hours before starting the treatment with different concentrations of compound 19. Compound 19 dissolved in DMSO was added to cells for 48 hours before determining cell growth using MTT assay. […] Compound 19 inhibited cell growth about 75-80% at 10 and 20 μM under both growth conditions.
MOLT-4 cells were grown at two different conditions under 5% fetal bovine serum (FBS) and under 5% FBS fat free serum (charcoal treated serum). 20,000 cells were seeded into a 96 well plate for 24 hours before starting the treatment with different concentrations of compound 17. Compound 17 dissolved in DMSO was added to cells for 48 hours before determining cell growth using MTT assay. […] Compound 17 inhibited cell growth about 85-100% at 5, 10 and 20 μM under both growth conditions. Under both 5% FBS and 5% FBS fat free sera there was a strong trend of inhibition starting at 1 μM (FIGS. 36B-36C).

[3] = tested on: endogenous SREBPs; experiment: Luciferase reporter assay (pSRE-Luc, normalized by β-gal) in HEK293 cells; format: cell-based, human; set-up: Luc/Gal: dose or concentration left out as unconfirmed; conditions: entries 1-18 (FIG. 15); none = 9.4426
Description: On day 0, HEK293 cells were plated out in triplicate at a density of 5×10^3/well onto a 96-well plate in a Dulbecco's modified Eagle's medium with 10% fetal bovine serum, 100 units/mL penicillin, and 100 μg/mL streptomycin sulfate. On day 2, the cells were transiently co-transfected with the following plasmids by using Lipofectamine reagent (Invitrogen): 0.4 μg/well pSRE-Luc (an SRE-1-driven luciferase reporter construct; Hua et al., 1995 J Biol Chem 270, 29422-7), and 0.1 μg/well a b-gal reporter in which the expression of β-gal is controlled by an actin promoter in a final volume of […]. After incubation for 5 hrs at 37° C., the cells were washed with phosphate-buffered saline and then incubated in 100 μl of Dulbecco's modified Eagle's medium with 10% lipid-depleted serum, […] penicillin, and 100 μg/mL streptomycin sulfate in the absence or presence of fatostatin A. After 20 hrs of incubation, the cells in each well were lysed with 20 μL of 1× Reporter Lysis Buffer (Promega), and aliquots were used for measurement of luciferase (10 μL) and β-galactosidase (10 μL) activities. For luciferase assay, photon production was detected as counts per second in a Wallac 1420 ARVOsx multilabel counter (PerkinElmer). For β-galactosidase assays, hydrolysis of O-nitrophenyl-β-D-galactosidase was measured after incubation for 0.5 h at 37° C. by a microplate reader at the wave length of 405 nm (Tecan). The luciferase activity (counts per second) was normalized by the activity of β-galactosidase (OD units). For overexpression of the N-terminal matured form of SREBP-1c, pCMV-SREBP-1c (1-436) was co-transfected with pSRE-Luc. pSRE-Luc and pCMV-SREBP-1c (1-436) were provided by J. L. Goldstein (University of Texas Southwestern Medical Center). […]

[4] = tested on: endogenous SREBPs; experiment: SREBP activation assay (pSRE-Luc luciferase reporter) in CHO-K1 cells; format: cell-based, Chinese hamster; conditions: Cricetulus griseus, CHO-K1; 5 μM in CHOK1 cells
Description: To confirm that fatostatin impairs the function of SREBPs, the ability of endogenous SREBPs to activate transcription of an SREBP-responsive reporter gene was measured in CHO-K1 cells in the presence or absence of fatostatin (FIG. 18A).
Luciferase reporter assay. On day 0, CHO-K1 cells were plated out onto a 96-well plate in medium A (a 1:1 mixture of Ham's F-12 medium and Dulbecco's modified Eagle's medium, with 5% fetal bovine serum, 100 units/mL penicillin, and 100 μg/mL streptomycin sulfate). On day 2, the cells were transiently co-transfected with pSRE-Luc (an SRE-1-driven luciferase reporter construct) (Hua et al., 1995) and pAc-β-gal (β-gal reporter in which the expression of β-gal is controlled by an actin promoter), using Lipofectamine reagent (Invitrogen). After incubation for 5 h, the cells were washed with phosphate-buffered saline (PBS), and then incubated, in the absence or presence of fatostatin, in medium B (a 1:1 mixture of Ham's F-12 medium and Dulbecco's modified Eagle's medium, with 5% lipid-depleted serum, 100 units/mL penicillin, 100 μg/mL streptomycin sulfate, […], and 50 mM sodium mevalonate). After 20 h of incubation, the cells in each well were lysed, and aliquots were used to measure luciferase and β-galactosidase activities. Luciferase activity was normalized by the activity of β-galactosidase. For overexpression of the N-terminal matured form of SREBP-1c, pCMV-SREBP-1c(1-436) was co-transfected with pSRE-Luc and pAc-β-gal.
Standard SREBP activation assays were performed on the exemplary compounds identified in Table 4 as per the method for Fatostatin A in Example 1. The ability of endogenous SREBPs to activate transcription of an SREBP-responsive reporter gene was measured in the presence or absence of compounds 45-55 and 19 (FIG. 28), compounds 56-61 and 19 (FIG. 29) and compounds 62-66 (FIG. 30) at 5 μM in CHOK1 cells. […] The inhibitory concentrations of compounds 53 (FIG. 31) and compounds 58 and 61 (FIG. 32) were determined.

| Compound | Inhibition of adipogenesis [1] | inhibition under 5% FF FBS relative to 5% FBS ([2]; 3 μM) | inhibition of cell growth ([2]; 5, 10 and 20 μM, both growth conditions) | Luc/Gal [3] | inhibition at 5 µM [4] [%] |
| --- | --- | --- | --- | --- | --- |
| CCCc1cc(-c2nc(-c3ccc(NC(C)C)cc3)cs2)ccn1 [Compound 17, N-isopropyl-4-(2-(2-propylpyridin-4-yl)thiazol-4-yl)benzenamine] | + | about 2.5 times | 85-100% | 4.7079 | – |
| CS(=O)(=O)Nc1ccc(-c2csc([C@H]3CCCN3C(=O)OCc3ccccc3)n2)cc1 [Compound 53, benzyl (R)-2-(4-(4-(methylsulfonamido)phenyl)thiazol-2-yl)pyrrolidine-1-carboxylate] | – | – | – | – | ~30 |
| Cc1ccc(S(=O)(=O)Nc2ccc(C(=O)N3CCN(c4cc(Cl)ccc4C)CC3)cc2)cc1 [Compound 58, (4-(5-chloro-2-methylphenyl)piperazin-1-yl)(4-(tosylamino)phenyl)methanone] | – | – | – | – | ~42 |
| Cc1ccc(-c2csc(/C(C#N)=C\Cc3ccc(S(=O)(=O)Nc4nccs4)cc3)n2)c(C)c1 [Compound 61, (Z)-4-(3-cyano-3-(4-(2,4-dimethylphenyl)thiazol-2-yl)allyl)-N-(thiazol-2-yl)benzenesulfonamide] | – | – | – | – | ~25 |
